# In patent publication US9895338B1, “Cobalt-polypyridyl complex for treatment of cancer, a pharmaceutical composition and a kit comprising it” (Macau University of Science and Technology, priority 2016, dated 2018):
# Assays:
# [1] = test system: HeLa cells (cervical cancer); experiment: MTT cytotoxicity assay, HeLa; format: cell-based; conditions: 72 h
# Protocol: (§1) All prepared cobalt-polypyridyl complexes were dissolved in DMSO at a final concentration of 50 mmol/L and stored at −20° C. before use. Cytotoxicity was assessed by using the 3-(4,5-dimethylthiazol-2-yl)-2,5-diphenyltetrazolium bromide (MTT) (5.0 mg/ml) assay as previously described (Wong, V. K. et al., Cell Death Dis, 2013, 4, e720). Briefly, 4×10^3 cells per well were seeded in 96-well plates before drug treatments. After overnight culture, the cells were then exposed to different concentrations of selected compounds (0.039-100 μmol/L) for 72 h. Cells without drug treatment were used as control. Subsequently, MTT (10 μL) solution was added to each well and incubated at 37° C. for 4 h followed by the addition of 100 μL solubilization buffer (10% SDS in 0.01 mol/L HCl) and overnight incubation. A570 nm was then determined in each well on the next day. The percentage of cell viability was calculated using the following formula: Cell viability (%)=Atreated/Acontrol×100. Data were obtained from three independent experiments. Cells include HeLa cells (cervical cancer), MCF-7 (breast cancer), H1299, H1975, A549 and LLC-1 (lung cancer), HepG2 and Hep3B (liver cancer) and LO2 (normal human hepatocytes).
# MCF-7 (breast cancer) = experiment: MTT cytotoxicity assay, MCF-7; format: cell-based; conditions: MCF-7, MTT, 72 h
# Protocol: as §1
# H1299 (lung cancer) = experiment: MTT cytotoxicity assay, H1299; format: cell-based, human; conditions: 72 h
# Protocol: as §1
# H1975 (lung cancer) = experiment: MTT cytotoxicity assay, H1975; format: cell-based; conditions: 72 h
# Protocol: as §1
# A549 (lung cancer) = experiment: MTT cytotoxicity assay, A549; format: cell-based; conditions: 72 h
# Protocol: as §1
# LLC-1 (lung cancer) = experiment: MTT cytotoxicity assay, LLC-1; format: cell-based; conditions: LLC-1, MTT, 72 h
# Protocol: as §1
# HepG2 (liver cancer) = experiment: MTT cytotoxicity assay, HepG2; format: cell-based; conditions: 72 h
# Protocol: as §1
# Hep 3B (liver cancer) = experiment: MTT cytotoxicity assay, Hep3B; format: cell-based; conditions: 72 h
# Protocol: as §1
# [2] = test system: LO2 (normal human hepatocytes); experiment: MTT cytotoxicity assay, LO2; format: cell-based; conditions: 72 h
# Protocol: as §1
# [3] = test system: Taxol-sensitive MCF-7 cancer cells; experiment: MTT cytotoxicity, taxol-sensitive MCF-7; format: cell-based; conditions: MCF-7, MTT, 72 h
# Protocol: as §1, with “experiments.” for “experiments. Cells include HeLa cells (cervical cancer), MCF-7 (breast cancer), H1299, H1975, A549 and LLC-1 (lung cancer), HepG2 and Hep3B (liver cancer) and LO2 (normal human hepatocytes).”
# [4] = test system: Taxol-resistant MCF-7 cancer cells; experiment: MTT cytotoxicity, taxol-resistant MCF-7; format: cell-based; conditions: for IC50: MCF-7, MTT, 72 h; for Resistant Factor: MCF-7, IC50 taxol-resistant over IC50 taxol-sensitive
# Protocol: as §1, with “experiments.” for “experiments. Cells include HeLa cells (cervical cancer), MCF-7 (breast cancer), H1299, H1975, A549 and LLC-1 (lung cancer), HepG2 and Hep3B (liver cancer) and LO2 (normal human hepatocytes).”
# (§2) All cells were obtained from the American Type Culture Collection (Rockville, Md., USA) unless otherwise specified. Immortalized wild-type and Atg7-deficient mouse embryonic fibroblasts (MEFs) were provided by Professor Masaaki Komatsu (Juntendo University, School of Medicine, Japan). Taxol-resistant types of A549, MCF-7, HCT-8 cancer cells, cisplatin-resistant SGC7901 cancer cells were purchased from KeyGEN BioTECH, China.
# [5] = test system: Taxol-sensitive HCT8 cancer cells; experiment: MTT cytotoxicity, taxol-sensitive HCT8; format: cell-based; conditions: 72 h
# Protocol: as §1, with “experiments.” for “experiments. Cells include HeLa cells (cervical cancer), MCF-7 (breast cancer), H1299, H1975, A549 and LLC-1 (lung cancer), HepG2 and Hep3B (liver cancer) and LO2 (normal human hepatocytes).”
# [6] = test system: Taxol-resistant HCT8 cancer cells; experiment: MTT cytotoxicity, taxol-resistant HCT8; format: cell-based; conditions: for IC50: HCT8, MTT, 72 h; for Resistant Factor: HCT8, IC50 taxol-resistant over IC50 taxol-sensitive
# Protocol: as §1, with “experiments.” for “experiments. Cells include HeLa cells (cervical cancer), MCF-7 (breast cancer), H1299, H1975, A549 and LLC-1 (lung cancer), HepG2 and Hep3B (liver cancer) and LO2 (normal human hepatocytes).”
# as §2
# [7] = test system: Taxol-sensitive A549 cancer cells; experiment: MTT cytotoxicity, taxol-sensitive A549; format: cell-based; conditions: 72 h
# Protocol: as §1, with “experiments.” for “experiments. Cells include HeLa cells (cervical cancer), MCF-7 (breast cancer), H1299, H1975, A549 and LLC-1 (lung cancer), HepG2 and Hep3B (liver cancer) and LO2 (normal human hepatocytes).”
# [8] = test system: Taxol-resistant A549 cancer cells; experiment: MTT cytotoxicity, taxol-resistant A549; format: cell-based
# Protocol: as §1, with “experiments.” for “experiments. Cells include HeLa cells (cervical cancer), MCF-7 (breast cancer), H1299, H1975, A549 and LLC-1 (lung cancer), HepG2 and Hep3B (liver cancer) and LO2 (normal human hepatocytes).”
# as §2
# [9] = test system: cisplatin-sensitive A2780 ovarian cancer cells; experiment: MTT cytotoxicity, cisplatin-sensitive A2780; format: cell-based; conditions: 72 h
# Protocol: as §1, with “experiments.” for “experiments. Cells include HeLa cells (cervical cancer), MCF-7 (breast cancer), H1299, H1975, A549 and LLC-1 (lung cancer), HepG2 and Hep3B (liver cancer) and LO2 (normal human hepatocytes).”
# (§3) Cisplatin-sensitive or -resistant A2780, OV2008 and C13 cancer cells were provided by Prof. Benjamin Tsang (Department of Obstetrics and Gynecology and Department of Cellular and Molecular Medicine, University of Ottawa, Canada). HCT116 p53^+/+ and p53^−/− isogenic human colon cancer cells were provided by Professor Bert Vogelstein (Ludwig Center at Johns Hopkins, Howard Hughes Medical Institute, USA). All media were supplemented with 10% fetal bovine serum and the antibiotics penicillin (50 U/ml) and streptomycin (50 μg/ml; Invitrogen, Paisley, Scotland, UK). All cell cultures were incubated at 37° C. in a 5% humidified CO2 incubator.
# [10] = test system: cisplatin-resistant A2780 ovarian cancer cells; experiment: MTT cytotoxicity, cisplatin-resistant A2780; format: cell-based; conditions: for IC50: A2780, MTT, 72 h; for Resistant Factor: A2780, cisplatin-resistant over cisplatin-sensitive
# Protocol: as §1, with “experiments.” for “experiments. Cells include HeLa cells (cervical cancer), MCF-7 (breast cancer), H1299, H1975, A549 and LLC-1 (lung cancer), HepG2 and Hep3B (liver cancer) and LO2 (normal human hepatocytes).”
# as §3
# [11] = test system: cisplatin-sensitive SGC-7901 gastric cancer cells; experiment: MTT cytotoxicity, cisplatin-sensitive SGC-7901; format: cell-based; conditions: SGC-7901, MTT, 72 h
# Protocol: as §1, with “experiments.” for “experiments. Cells include HeLa cells (cervical cancer), MCF-7 (breast cancer), H1299, H1975, A549 and LLC-1 (lung cancer), HepG2 and Hep3B (liver cancer) and LO2 (normal human hepatocytes).”
# [12] = test system: cisplatin-resistant SGC-7901 gastric cancer cells; experiment: MTT cytotoxicity, cisplatin-resistant SGC-7901; format: cell-based; conditions: for IC50: SGC-7901, MTT, 72 h; for Resistant Factor: SGC-7901, cisplatin-resistant over cisplatin-sensitive
# Protocol: as §1, with “experiments.” for “experiments. Cells include HeLa cells (cervical cancer), MCF-7 (breast cancer), H1299, H1975, A549 and LLC-1 (lung cancer), HepG2 and Hep3B (liver cancer) and LO2 (normal human hepatocytes).”
# as §2
# [13] = test system: OV2008 cervical cancer cells; experiment: MTT cytotoxicity, OV2008 (cisplatin-sensitive); format: cell-based; conditions: 72 h
# Protocol: as §1, with “experiments.” for “experiments. Cells include HeLa cells (cervical cancer), MCF-7 (breast cancer), H1299, H1975, A549 and LLC-1 (lung cancer), HepG2 and Hep3B (liver cancer) and LO2 (normal human hepatocytes).”
# as §3
# [14] = test system: OV2008/C13 cervical cancer cells; experiment: MTT cytotoxicity, OV2008/C13 (cisplatin-resistant); format: cell-based; conditions: for Resistant Factor: OV2008/C13 over OV2008
# Protocol: as §1, with “experiments.” for “experiments. Cells include HeLa cells (cervical cancer), MCF-7 (breast cancer), H1299, H1975, A549 and LLC-1 (lung cancer), HepG2 and Hep3B (liver cancer) and LO2 (normal human hepatocytes).”
# as §3
# [15] = test system: HCT116 p53^+/+ colon cancer cells; experiment: MTT cytotoxicity, HCT116 p53+/+; format: cell-based, human; conditions: 72 h
# Protocol: as §1, with “experiments.” for “experiments. Cells include HeLa cells (cervical cancer), MCF-7 (breast cancer), H1299, H1975, A549 and LLC-1 (lung cancer), HepG2 and Hep3B (liver cancer) and LO2 (normal human hepatocytes).”
# as §3
# [16] = test system: HCT116 p53^−/− colon cancer cells; experiment: MTT cytotoxicity, HCT116 p53-/-; format: cell-based, human
# Protocol: as §1, with “experiments.” for “experiments. Cells include HeLa cells (cervical cancer), MCF-7 (breast cancer), H1299, H1975, A549 and LLC-1 (lung cancer), HepG2 and Hep3B (liver cancer) and LO2 (normal human hepatocytes).”
# as §3
# Atg7 wild-type MEFs = experiment: Cytotoxic effect in Atg7 wild-type MEFs; format: cell-based, mouse
# Source text: as §2
# (§4) In addition, the protein conversion from LC3-I to LC3-II is the marker for autophagy induction. […] In order to further confirm that the cobalt complex-induced autophagy leads to its anti-cancer effect, the cytotoxic effect of the cobalt-polypyridyl complex of Formula (IV) has been examined in both autophagy-wild type and -deficient cells respectively. Therefore, both autophagy related gene (Atg) 7 wild-type and deficient mouse embryonic fibroblasts (MEFs) (Wong, V. K. et al., Cell Death Dis, 2013, 4, e720) were used in this study. […] In view of the fact that the cobalt-polypyridyl complex of Formula (IV)-mediated cytotoxicity was markedly abrogated from the failure of autophagy induction in Atg7−/− deficient cells, these findings implicated that the cobalt-polypyridyl complex of Formula (IV)-induced autophagy would ultimately led to autophagic cell death.
# Atg7 deficient MEFs = experiment: Cytotoxic effect in Atg7 deficient MEFs; format: cell-based, mouse
# Source text: as §2, §4
# [17] = test system: cancer cells from different origins; experiment: MTT cytotoxicity assay, summary over cancer cell lines; format: cell-based; conditions: range over the cancer cell lines of Table 1; read-out: mean IC50 values ranging (anti-cancer potency)
# Protocol: as §1
# By contrast, the cytotoxicity was lower in LO2 normal human hepatocytes. […]
Molecule,IC50 [1],IC50 (MCF-7 (breast cancer)),IC50 (H1299 (lung cancer)),IC50 (H1975 (lung cancer)),IC50 (A549 (lung cancer)),IC50 (LLC-1 (lung cancer)),IC50 (HepG2 (liver cancer)),IC50 (Hep 3B (liver cancer)),IC50 [2],IC50 [3],IC50 [4],Resistant Factor [4],IC50 [5],IC50 [6],Resistant Factor [6],IC50 [9],IC50 [10],Resistant Factor [10],IC50 [11],IC50 [12],also measured
"[Co^II(4,4′-Me2-Bpy)3](PF6)2 [complex (III)]",10.1 µM,15.4 µM,3.43 µM,15.4 µM,9.45 µM,2.79 µM,7.39 µM,4.06 µM,13.5 µM,4.62 µM,2.51 µM,0.54,3.13 µM,1.16 µM,0.37,11.9 µM,11.2 µM,0.94,11.7 µM,17.6 µM,"IC50 [7]: 9.59 µM; IC50 ([8]; A549, MTT, 72 h): 2.37 µM; Resistant Factor ([8]; A549, IC50 taxol-resistant over IC50 taxol-sensitive): 0.25; Resistant Factor [12]: 1.50; IC50 [13]: 7.06 µM; IC50 ([14]; OV2008/C13, MTT, 72 h): 15.6 µM; Resistant Factor [14]: 2.21; IC50 [15]: 17.1 µM; Resistant Factor ([16]; HCT116 p53^−/− over HCT116 p53^+/+): 0.52; IC50 ([16]; MTT, 72 h): 8.89 µM; IC50 (Atg7 wild-type MEFs): 4.84 µM; IC50 (Atg7 deficient MEFs): 14 µM"
"CCCCCCCCCc1ccnc(-c2cc(CCCCCCCCC)ccn2)c1.CCCCCCCCCc1ccnc(-c2cc(CCCCCCCCC)ccn2)c1.CCCCCCCCCc1ccnc(-c2cc(CCCCCCCCC)ccn2)c1.F[P-](F)(F)(F)(F)F.F[P-](F)(F)(F)(F)F.F[P-](F)(F)(F)(F)F.[Co+3] [complex (VIII), [Co^III(4,4′-(C9H19)2-Bpy)3](PF6)3]",21.3 µM,37.4 µM,26.7 µM,24.2 µM,82.8 µM,10.4 µM,26 µM,54.1 µM,40.2 µM,28.5 µM,11.1 µM,0.39,56.4 µM,41.1 µM,0.73,30.2 µM,29.1 µM,0.96,36.3 µM,35.9 µM,IC50 [17]: 10.4 to 82.8 µM; Resistant Factor [12]: 0.99; IC50 [13]: 49.4 µM; Resistant Factor [14]: 1.87
